The source of these data is patent US9857359B2, “Methods for determining drug efficacy using cereblon-associated proteins” (CELGENE CORPORATION, priority 2012, dated 2018).

Test [1] concerns Aiolos. The experiment in a line: Aiolos immunohistochemistry in OCI-LY10 xenograft lymphoma. The test is classed as in vivo, mice. The procedure:
Xenografts from lymphoma OCI-LY10 cells were used for the following experiments. Immunohistochemistry was performed on the Bond-Max automated slide stainer (Leica Microsystems) using the associated Bond Polymer Refine Detection Kit. Four micron thick FFPE sections were deparaffinized on the instrument. Antigen retrieval was performed with Epitope Retrieval 2 (pH 9.0) for 20 minutes at 100° C. The slides were blocked for endogenous peroxidase activity with Peroxide Block for 5 minutes at room temperature. […] Enzymatic detection of anti-Aiolos antibody was accomplished with hydrogen peroxide substrate and diaminobenzidine tetrahydrochloride (DAB) chromogen at room temperature for 10 minutes. Slides were counterstained with Hematoxylin for 5 minutes at room temperature.

Test [2] concerns Aiolos. The experiment in a line: Aiolos expression in viably frozen PBMCs prepared from treated whole blood, FACS. The test is classed as cell-based, human. The procedure:
Pre-weighed test compound was dissolved in 100% DMSO to make 100 mM or 10 mM stock concentrations. The compound in 100% DMSO was diluted to 10 mM, 1 mM, or 0.1 stock concentrations as appropriate. Compounds were directly added to heparinized human whole blood (1:1000 dilution) for final concentrations of 10 μM, 1 μM, or […] as appropriate. Seven (7) ml of whole blood was transferred to a 50 mL conical tube and treated with test compound. The blood was incubated for 1.5 or 5 hours at 37° C., 5% CO2. After each time point, 3.5 ml blood was transferred to BD Vacutainer CPT cell preparation tube, and the tube was […] inverted 10 times and centrifuged at RT, 1800 RCF for 20 minutes. Mononuclear layer was collected and transferred to 15 ml conical tube (3×3.5 ml DMSO controls were added to three CPT tubes, and mononuclear layers were collected and combined for following steps). The tube was filled up with cold PBS and centrifuged at 4° C., 300 RCF for 15 minutes. Supernatant was discarded and cell pellet was resuspended in 2 ml freezing medium (10% DMSO+90% FBS). The cell suspension was transferred to cryovial and was placed in Mr. Frosty (Fisher, cat. 15-350-50) and left at −80° C. freezer O/N.
The cells were thawed in 37° C. water bath and centrifuged, and the freezing medium was removed. The cell pellet was washed 1× with cold PBS. The cells were lyzed and fixed by adding 1× Lyse/Fix buffer and mixed thoroughly by inverting the tube several times. The cell lyse/fix and blood mixture was incubated in a 37° C. water bath for 10 minutes. Cells were pelleted by centrifugation at 500×g for 5 minutes and removed the supernatant by aspiration. Cells were suspended with 1 mL of cold PBS, and then pelleted by centrifugation at 500×g for 5 minutes, and the supernatant was aspirated off. Two hundred (200) μL of PBS was added to cells. Cells were transferred to polystyrene U-bottom 96-well plates (BD, Cat. No. 353910) for use with the FACSCanto HTS. Cells were washed with 200 μL of cold PBS and spun at 500×g for 5 minutes, and the plate was flicked and gently dapped on a paper towel to remove excess buffer. The cells were resuspended and permeabilized by adding 200 μL of cold BD Perm/Wash Buffer I and incubated on ice for 30 minutes. The cells were pelleted by centrifugation at 500×g for 5 minutes and the buffer removed. The cells were washed once with 200 μL BD perm/wash buffer and repelleted, and the buffer was removed.
The cell pellet was resuspended in 40 μL of BD perm/wash buffer. Twenty (20) μL each of anti-CD3-PE, anti-CD20-APC, and anti-Aiolos Rabbit antibodies, or 20 μL of appropriate isotype controls, or 20 μL of 1:400 of normal Rabbit IgG (control for Aiolos) were added to the cells. The mixture was mixed thoroughly and incubated at room temperature for 45 minutes in the dark. The mixture was centrifuged and washed once with BD perm/wash buffer at 500×g for 5 minutes. The cell pellet was resuspended in 80 μL of BD perm/wash buffer, and 20 μL of secondary Goat Anti-Rabbit IgG AF488 antibody (at 1:400 dilution in Perm/Wash Buffer) was added, and the mixture was incubated at RT for 30 min in the dark. Secondary antibody was not added to the isotype controls. The mixture was washed once with 200 μL BD Stain Buffer and centrifuged at 500×g for 5 minutes, and the pelleted cells were resuspended in 200 μL of staining buffer. The cells were analyzed on the BD FACSCanto using the HTS platform. The cells were analyzed using the standard method. If the cells cannot be read right away, the plates were covered in foil to protect from light and stored at 4° C. for up to 2 days. Data analysis was carried out using FlowJo from Tree Star, Inc. to assess mean fluorescence intensity and percent inhibition of Aiolos in cell population.

Test [3] relates to Aiolos. In words: Aiolos protein expression in T cells with or without proteasome inhibitor. The test is classed as cell-based. How it is done: U266 cells were obtained from ATCC (American Type Culture Collection, Manassas, Va., USA). DF15 cells were obtained from John Shaughnessy (University of Arkansas, Little Rock, Ark., USA). CD19+ B cells were purchased from HemaCare BioResearch Products (Van Nuys, Calif.). Cells were grown in RPMI-1640 medium (Cellgro, Manassas, Va.) containing 10% (V/V) heat-inactivated fetal bovine serum (Gibco, Grand Island, N.Y., USA) supplemented with 2 mM glutamine. […] Primary T cells were isolated from human leukocytes (Blood Center of New Jersey, East Orange, N.J.) by centrifugation through FICOLL® centrifugation medium following the ROSETETTESEP™ protocol (Stem Cell Technologies, Vancouver, Canada). […] Dexamethasone (Sigma, St. Louis, Mo.), melphalan (Sigma, St. Louis, Mo.) and bortezomib (Selleck Chemicals, Houston, Tex.) treated was for 6 hours. The final DMSO concentration is 0.1%. Cells were pre-treated with 10 μM MG-132 (Calbiochem Biochemicals, Billerica, Mass.) for 30 minutes prior to drug addition. Cells were harvested, washed in PBS and cell lysates separated on SDS-PAGE gels (Bio-Rad, Hercules, Calif.). […] The blots were analyzed on ODESSEY® imager (LI-COR Biosciences, Lincoln, Nebr.).

For `Cc1nc2cccc(N)c2c(=O)n1C1CCC(=O)NC1=O` (centres unmarked) [Compound A, 3-(5-amino-2-methyl-4-oxo-4H-quinazolin-3-yl)-piperidine-2,6-dione], in test [1] (all lower than vehicle or vincristine treated tumors), the “Approximate Aiolos levels in compound treated tumors (rank order)” value is given as “S-isomer of Compound A<Compound A<R-isomer of Compound A<lenalidomide”. For the same compound, the “Aiolos expression in lymphoma cells” value in test [1] (immunohistochemistry) is “inhibited the expression of Aiolos”. Also, in test [2] (1.5 hours after the treatment), the “Aiolos expression in T and B cell populations” value is “inhibitory effect was observed in both T and B cell populations”; the “Aiolos expression in lymphocytes” value was “some inhibitory effects”; the “Aiolos expression in non-lymphocytes” value was “no effect was observed”. In test [2] (5 hours after the treatment), the “Aiolos expression in lymphocyte cells” value was “significant inhibitory effects” and the “Aiolos expression in non-lymphocytes” value is recorded as “no such effects were observed”. In addition, in test [3] (absence of a proteasome inhibitor), the Aiolos expression entry was “inhibit the expression of Aiolos”. In addition, the Aiolos expression entry in test [3] (proteasome inhibitor present) is “little inhibition was observed”.

Take `O=C1CC[C@H](N2Cc3c(OCc4ccc(CN5CCOCC5)cc4)cccc3C2=O)C(=O)N1` [Compound B, 3-(4-((4-(morpholinomethyl)benzyl)oxy)-1-oxoisoindolin-2-yl)piperidine-2,6-dione]: in test [2] (1.5 hours after the treatment), the “Aiolos expression in T and B cell populations” value was “inhibitory effect was observed in both T and B cell populations”; the “Aiolos expression in lymphocytes” value was “some inhibitory effects”; the “Aiolos expression in non-lymphocytes” value is “no effect was observed”. For the same compound, in test [2] (5 hours after the treatment), the “Aiolos expression in lymphocyte cells” value is listed as “significant inhibitory effects” and the “Aiolos expression in non-lymphocytes” value was “no such effects were observed”.
